{"source": "patent US20230167064A1", "about": "“TREATMENTS OF INFLAMMATORY BOWEL DISEASE” (Aqilion AB, priority 2020, published 2023)", "key": {"[1]": {"tested_on": "DSS model of Ulcerative Colitis using C57Bl/6 mice", "assay": "DSS model of Ulcerative Colitis in mice", "assay_type": "in vivo", "conditions": "1 mg/kg daily oral, vs vehicle (and anti-TNFα antibody); for colitis clinical score: suspension in CMC-Na 2%, Day 9; for colon length: Day 10, experiment termination", "protocol": "Ulcerative Colitis was modelled in C57Bl/6 mice by administering Dextran Sulphate Sodium (DSS) in drinking water (1.5% w/v) for 5 days. Mice were monitored daily for weight loss and clinical symptoms of disease for 10 days starting at the beginning of DSS administration.\nThe length and weight of the colon were also assessed.\nCompared to naïve animals, animals given DSS water developed clinical signs of disease including weight loss and diarrhoea as well as gross pathological signs of disease on experiment termination. […] Shortened length and increased weight:length ratio indicates edema associated with ulcerative colitis."}, "Crohn's Disease": {"tested_on": "Crohn's Disease", "conditions": "reported in D'Haens et al. 2015 and WO 2011/014255; cited from earlier work"}, "[2]": {"tested_on": "CD4+ adoptive transfer induced inflammatory bowel disease in mice", "assay": "CD4+ adoptive transfer induced inflammatory bowel disease in mice", "assay_type": "in vivo, Fox Chase C.B-17 SCID mice", "conditions": "1 mg/kg daily, day 21 to 49; for inhibition of inflammation/edema associated with inflammatory bowel disease (anti-inflammatory effect in colon): Potassium Salt", "protocol": "The efficacy of Example compound 2 in inhibiting inflammation/edema associated with inflammatory bowel disease was evaluated in a CD4+ adoptive transfer induced inflammatory bowel disease in mice.\nSpecies/Strain or Breed: Fox Chase C.B-17 SCID & Balb/C\nOn study day −1, SCID mice were weighed and evenly distributed into treatment groups based on body weight.\nOn study day 0, Balb/C mice were terminated, and spleens obtained for CD4^+CD45RB^high cell isolation (Using SCID IBD Cell Separation Protocol). After cells were sorted and obtained, each animal in the treatment groups received an IP injection of CD4^+CD45RB^high cells at a minimum 4×10^5 cells (200 μl/mouse injections). A naïve group of mice was followed through the experiment without receiving the injection of cells. The naïve group comprised 5 animals.\nOn study day 21, treatment with Example compound 2 (1 mg/kg, daily day 21 to 49) was initiated. The compound was formulated as a 0.1 mg/mL suspension with sodium carboxymethyl cellulose (1%, w/v). Mice received either Example compound 2 or vehicle. Each of those groups comprised 10 animals.\nOn study day 49, animals were anesthetized with Isoflurane and bled to exsanguination followed by cervical dislocation. The entire colon was removed, measured, and weighed. The colon was analysed for its level of interferon-γ and IL-22. The inflammation in the colons was also scored by visual and histopathological assessments."}, "[3]": {"tested_on": "aryl hydrocarbon receptor (AhR)", "assay": "Activation of AhR in colon of mice after oral dosing (qPCR of CYP1A1)", "assay_type": "in vivo, C57Bl/6 mice", "conditions": "for Colon CYP1A1 (fold change over untreated) Mean / Liver CYP1A1 (fold change over untreated) Mean: day 14; for Colon CYP1A1 (fold change over untreated) Mean: qPCR normalized to GAPDH & ACTB", "protocol": "The potential of Example compound 2 to activate the aryl hydrocarbon receptor (AhR) in the colon following oral administration was evaluated in a wild-type (WT) mice.\nSpecies/Strain or Breed: C57Bl/6\nOn study day 0, animals were weighed and evenly distributed into treatment groups based on body weight. On study day 14, animals were asphyxiated via CO2 inhalation followed by cervical dislocation. The entire colon was removed, collected and prepared for qPCR analysis of CYP1A1 (Normalized to GAPDH & ACTB).\nThe Example compound 2 was formulated as a 0.1 mg/ml, 0.01 mg/ml or 0.001 mg/ml suspension with sodium carboxymethyl cellulose (1%, w/v)."}, "[4]": {"assay": "In vivo pharmacokinetic study in rats", "parameters": "species or system Sprague Dawley rats", "conditions": "1 mg/kg oral, rat plasma", "protocol": "An in vivo pharmacokinetic study in rats was performed to determine if Example compound 2 can be absorbed and detected systemically after oral dosing. 4 male Sprague Dawley rats, approximately 225 g-250 g at dosing were dosed with 1 mg/kg of Example compound 2 formulated as a 0.1 mg/mL suspension with sodium carboxymethyl cellulose (1%, w/v). Blood samples were taken at 15 min, 30 min, 1 h, 2 h, 4 h, 6 h, 8 h and 24 h post dose At each blood sampling approximately 250 μL blood was sampled in K3EDTA vials and approximately 100 μL plasma was also prepared. The plasma samples were prepared by mixing 50 μL plasma with 250 μL of internal standard solution (20 ng/mL of phenacetin in ACN with 1% formic acid), mixed and centrifuged (20 min, 4000 rpm). Plasma samples were transferred to Waters Ostro 96-well plate and drawn through the plate by applying 6-8 psi positive pressure for 10 min. 100 μL of supernatant was further diluted with 50 μL UP water and sample was submitted to analysis. The standard and QC samples were prepared into blank rat colon homogenate and blank rat plasma. Standards were spiked into concentrations 0.1-10000 ng/mL of the analytes, QC samples into 3, 30, 300 and 3000 ng/mL, and were otherwise treated as samples."}}, "note": "“Also recorded” adds a separate entry of the source.", "data": [{"compound": "Cn1c(=O)c(C(=O)Nc2ccccc2)c(O)c2c(Cl)cccc21", "note": "[Example compound 1, 5-chloro-4-hydroxy-1-methyl-2-oxo-N-phenyl-quinoline-3-carboxamide]", "values": [{"measurement": "colitis clinical score", "setting": "[1]", "result": "significant reduction in colitis clinical score; also recorded: lower colitis score"}, {"measurement": "colitis clinical score", "setting": "[1]; listed as DELAQ", "result": "protective effect against the development of the clinical symptoms of Ulcerative Colitis"}, {"measurement": "colon length", "setting": "[1]", "result": "significant increase in colon length; also recorded: greater colon length"}, {"measurement": "colon length", "setting": "[1]; listed as DELAQ", "result": "effective at reducing colon shortening"}, {"measurement": "body weight change (% change from day 1 of experiment), weight loss", "setting": "[1]", "result": "reduced weight loss"}]}, {"compound": "CCN(C(=O)c1c(O)c2c(Cl)cccc2n(C)c1=O)c1ccccc1", "note": "[laquinimod]", "values": [{"measurement": "benefit in treatment of Crohn's Disease", "setting": "Crohn's Disease", "result": "beneficial for the treatment of Crohn's Disease"}]}, {"compound": "Cn1c(=O)c(C(=O)Nc2ccccc2)c(O)c2c(Cl)cccc21.[K]", "note": "[Example compound 2, 5-chloro-4-hydroxy-1-methyl-2-oxo-N-phenyl-quinoline-3-carboxamide Potassium Salt]", "values": [{"measurement": "inhibition of inflammation/edema associated with inflammatory bowel disease (anti-inflammatory effect in colon)", "setting": "[2]", "result": "local anti-inflammatory effect in the colon"}, {"measurement": "colon level of inflammatory markers (interferon-γ and IL-22)", "setting": "[2]; colon at day 49, vs vehicle", "result": "lower levels of inflammatory markers"}, {"measurement": "inflammation in the colons scored by visual and histopathological assessments", "setting": "[2]; day 49, vs vehicle", "result": "fewer signs of inflammation"}, {"measurement": "inhibition of inflammation/edema associated with inflammatory bowel disease (anti-inflammatory effect in colon)", "setting": "[2]; listed as potassium salt of DELAQ", "result": "effective in inhibiting inflammation/edema"}, {"measurement": "body weight (weight loss)", "setting": "[2]; vs vehicle", "result": "less weight loss"}, {"measurement": "Colon CYP1A1 (fold change over untreated) Mean", "setting": "[3]; 0.01 mg/kg PO QD D0-13", "result": "1.03 fold change over untreated"}, {"measurement": "Liver CYP1A1 (fold change over untreated) Mean", "setting": "[3]; 0.01 mg/kg PO QD D0-13", "result": "1.08 fold change over untreated"}, {"measurement": "Colon CYP1A1 (fold change over untreated) Mean", "setting": "[3]; 0.1 mg/kg PO QD D0-13", "result": "7.42 fold change over untreated"}, {"measurement": "Liver CYP1A1 (fold change over untreated) Mean", "setting": "[3]; 0.1 mg/kg PO QD D0-13", "result": "2.81 fold change over untreated"}, {"measurement": "Colon CYP1A1 (fold change over untreated) Mean", "setting": "[3]; 1.0 mg/kg PO QD D0-13", "result": "8.34 fold change over untreated"}, {"measurement": "Liver CYP1A1 (fold change over untreated) Mean", "setting": "[3]; 1.0 mg/kg PO QD D0-13", "result": "3.44 fold change over untreated"}, {"measurement": "CYP1A1 mRNA expression compared to untreated animals (AhR activation)", "setting": "[3]; 1.0 and 0.1 mg/kg oral, WT mice", "result": "significant increase in CYP1A1 mRNA expression"}, {"measurement": "AhR activating effect, colon versus liver CYP1A1 increase", "setting": "[3]; oral, increase in liver CYP1A1 lower than in colon", "result": "local AhR activating effect"}, {"measurement": "clearance from plasma", "setting": "[4]", "result": "rapidly cleared"}, {"measurement": "level in the plasma after oral dosing", "setting": "[4]; 15 min to 24 h post dose", "result": "detected in the plasma"}]}]}
